# According to patent US12077503B2, “Substituted cyclic amides and their use as herbicides” (FMC CORPORATION, priority 2015, dated 2024):
# Key:
# Format in all cases: in vivo
# [1] = tested on: barnyardgrass (Echinochloa crus-galli); assay: Test G Post-Emergence Protocol; details: Echinochloa crus-galli, post-emergence, 312 h, read-out: Barnyardgrass damage rating; for pest or weed control at 15.625 g/ha: 15.625 g ai/ha, evaluated after 13 days (100=total damage to plant; 0=no damage to plant); for pest or weed control at 62.5 g/ha: 62.5 g ai/ha; for pest or weed control at 62.5 g/ha / pest or weed control at 250 g/ha: evaluated after 13 days, 100=total damage to plant, 0=no damage to plant; for pest or weed control at 250 g/ha: 250 g ai/ha
# Summary of the method: (§1)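 Pot-grown seedlings, 8 days old, raised in a glasshouse at 24/16 °C day/night with 14 h light and 65% humidity, were sprayed post-emergence with test compound in acetone/water (50:50) plus 0.5% Tween 20 at 15.625, 62.5 or 250 g/ha. Damage was scored visually 13 days later on a 0–100 scale (100 = total damage).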
# [2] = tested on: giant foxtail (Setaria faberi); assay: Test G Post-Emergence Protocol; details: Setaria faberi, post-emergence, 312 h, read-out: Foxtail, Giant damage rating; for pest or weed control at 15.625 g/ha: 15.625 g ai/ha, evaluated after 13 days (100=total damage to plant; 0=no damage to plant); for pest or weed control at 62.5 g/ha: 62.5 g ai/ha; for pest or weed control at 62.5 g/ha / pest or weed control at 250 g/ha: evaluated after 13 days, 100=total damage to plant, 0=no damage to plant; for pest or weed control at 250 g/ha: 250 g ai/ha
# Summary of the method: as §1
# [3] = tested on: velvetleaf (Abutilon theophrasti); assay: Test G Post-Emergence Protocol; details: Abutilon theophrasti, post-emergence, 312 h, read-out: Velvetleaf damage rating; for pest or weed control at 15.625 g/ha: 15.625 g ai/ha, evaluated after 13 days (100=total damage to plant; 0=no damage to plant); for pest or weed control at 62.5 g/ha: 62.5 g ai/ha; for pest or weed control at 62.5 g/ha / pest or weed control at 250 g/ha: evaluated after 13 days, 100=total damage to plant, 0=no damage to plant; for pest or weed control at 250 g/ha: 250 g ai/ha
# Summary of the method: as §1
# [4] = tested on: redroot pigweed (Amaranthus retroflexus); assay: Test G Post-Emergence Protocol; details: Amaranthus retroflexus, post-emergence, 312 h, read-out: Pigweed, Redroot damage rating; for pest or weed control at 15.625 g/ha: 15.625 g ai/ha, evaluated after 13 days (100=total damage to plant; 0=no damage to plant); for pest or weed control at 62.5 g/ha: 62.5 g ai/ha; for pest or weed control at 62.5 g/ha / pest or weed control at 250 g/ha: evaluated after 13 days, 100=total damage to plant, 0=no damage to plant; for pest or weed control at 250 g/ha: 250 g ai/ha
# Summary of the method: as §1
# corn (Zea mays) [5] = assay: Test G Post-Emergence Protocol; details: Zea mays, post-emergence, 312 h, read-out: Corn damage rating; for plant injury at 15.625 g/ha: 15.625 g ai/ha, evaluated after 13 days (100=total damage to plant; 0=no damage to plant); for plant injury at 62.5 g/ha: 62.5 g ai/ha; for plant injury at 62.5 g/ha / plant injury at 250 g/ha: evaluated after 13 days, 100=total damage to plant, 0=no damage to plant; for plant injury at 250 g/ha: 250 g ai/ha
# Summary of the method: as §1
# [6] = tested on: ivy-leaved morning glory (Ipomoea hederacea); assay: Test G Post-Emergence Protocol; details: Ipomoea, post-emergence, 312 h, read-out: Morningglory, Ivy-leaved damage rating; for pest or weed control at 15.625 g/ha: 15.625 g ai/ha, evaluated after 13 days (100=total damage to plant; 0=no damage to plant); for pest or weed control at 62.5 g/ha: 62.5 g ai/ha; for pest or weed control at 62.5 g/ha / pest or weed control at 250 g/ha: evaluated after 13 days, 100=total damage to plant, 0=no damage to plant; for pest or weed control at 250 g/ha: 250 g ai/ha
# Summary of the method: as §1
# [7] = tested on: barnyardgrass (Echinochloa crus-galli); assay: Test G Pre-Emergence Protocol; details: Echinochloa crus-galli, pre-emergence, 312 h, evaluated after 13 days; for pest or weed control at 15.625 g/ha: 15.625 g ai/ha; for pest or weed control at 15.625 g/ha / pest or weed control at 250 g/ha: read-out: Barnyardgrass damage rating (100=total damage to plant; 0=no damage to plant); for pest or weed control at 62.5 g/ha: 62.5 g ai/ha, 100=total damage to plant, 0=no damage to plant, read-out: Barnyardgrass damage rating; for pest or weed control at 250 g/ha: 250 g ai/ha
# Summary of the method: (§2)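 One day after sowing, pots are treated with a spray of test compound formulated in acetone/water 50:50 plus 0.5% Tween 20, giving 15.625, 62.5 or 250 g/ha. Evaluation on a 0–100 damage scale follows 13 days of glasshouse growth.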
# [8] = tested on: giant foxtail (Setaria faberi); assay: Test G Pre-Emergence Protocol; details: Setaria faberi, pre-emergence, 312 h, evaluated after 13 days; for pest or weed control at 15.625 g/ha: 15.625 g ai/ha; for pest or weed control at 15.625 g/ha / pest or weed control at 250 g/ha: read-out: Foxtail, Giant damage rating (100=total damage to plant; 0=no damage to plant); for pest or weed control at 62.5 g/ha: 62.5 g ai/ha, 100=total damage to plant, 0=no damage to plant, read-out: Foxtail, Giant damage rating; for pest or weed control at 250 g/ha: 250 g ai/ha
# Summary of the method: as §2
# [9] = tested on: velvetleaf (Abutilon theophrasti); assay: Test G Pre-Emergence Protocol; details: Abutilon theophrasti, pre-emergence, 312 h, evaluated after 13 days; for pest or weed control at 15.625 g/ha: 15.625 g ai/ha; for pest or weed control at 15.625 g/ha / pest or weed control at 250 g/ha: read-out: Velvetleaf damage rating (100=total damage to plant; 0=no damage to plant); for pest or weed control at 62.5 g/ha: 62.5 g ai/ha, 100=total damage to plant, 0=no damage to plant, read-out: Velvetleaf damage rating; for pest or weed control at 250 g/ha: 250 g ai/ha
# Summary of the method: as §2
# [10] = tested on: redroot pigweed (Amaranthus retroflexus); assay: Test G Pre-Emergence Protocol; details: Amaranthus retroflexus, pre-emergence, 312 h, evaluated after 13 days; for pest or weed control at 15.625 g/ha: 15.625 g ai/ha; for pest or weed control at 15.625 g/ha / pest or weed control at 250 g/ha: read-out: Pigweed, Redroot damage rating (100=total damage to plant; 0=no damage to plant); for pest or weed control at 62.5 g/ha: 62.5 g ai/ha, 100=total damage to plant, 0=no damage to plant, read-out: Pigweed, Redroot damage rating; for pest or weed control at 250 g/ha: 250 g ai/ha
# Summary of the method: as §2
# corn (Zea mays) [11] = assay: Test G Pre-Emergence Protocol; details: Zea mays, pre-emergence, 312 h, evaluated after 13 days; for plant injury at 15.625 g/ha: 15.625 g ai/ha; for plant injury at 15.625 g/ha / plant injury at 250 g/ha: read-out: Corn damage rating (100=total damage to plant; 0=no damage to plant); for plant injury at 62.5 g/ha: 62.5 g ai/ha, 100=total damage to plant, 0=no damage to plant, read-out: Corn damage rating; for plant injury at 250 g/ha: 250 g ai/ha
# Summary of the method: as §2
# [12] = tested on: ivy-leaved morning glory (Ipomoea hederacea); assay: Test G Pre-Emergence Protocol; details: Ipomoea, pre-emergence, 312 h, evaluated after 13 days; for pest or weed control at 15.625 g/ha: 15.625 g ai/ha; for pest or weed control at 15.625 g/ha / pest or weed control at 250 g/ha: read-out: Morningglory, Ivy-leaved damage rating (100=total damage to plant; 0=no damage to plant); for pest or weed control at 62.5 g/ha: 62.5 g ai/ha, 100=total damage to plant, 0=no damage to plant, read-out: Morningglory, Ivy-leaved damage rating; for pest or weed control at 250 g/ha: 250 g ai/ha
# Summary of the method: as §2
SMILES,pest or weed control at 15.625 g/ha [1] [%],pest or weed control at 62.5 g/ha [1] [%],pest or weed control at 250 g/ha [1] [%],pest or weed control at 15.625 g/ha [2] [%],pest or weed control at 62.5 g/ha [2] [%],pest or weed control at 250 g/ha [2] [%],pest or weed control at 15.625 g/ha [3] [%],pest or weed control at 62.5 g/ha [3] [%],pest or weed control at 250 g/ha [3] [%],pest or weed control at 15.625 g/ha [4] [%],pest or weed control at 62.5 g/ha [4] [%],pest or weed control at 250 g/ha [4] [%],plant injury at 15.625 g/ha (corn (Zea mays) [5]) [%],plant injury at 62.5 g/ha (corn (Zea mays) [5]) [%],plant injury at 250 g/ha (corn (Zea mays) [5]) [%],pest or weed control at 15.625 g/ha [6] [%],pest or weed control at 62.5 g/ha [6] [%],pest or weed control at 250 g/ha [6] [%],pest or weed control at 15.625 g/ha [7] [%],pest or weed control at 62.5 g/ha [7] [%],further results
Cc1c(F)cccc1NC(=O)[C@@H]1C(=O)N(C)C[C@H]1c1cccc(OCC2CC2)c1 (racemic) [Compound 1766],60,30,80,20,50,80,0,0,10,0,0,20,30,20,60,0,20,40,10,60,pest or weed control at 250 g/ha [7]: 80%; pest or weed control at 15.625 g/ha [8]: 30%; pest or weed control at 62.5 g/ha [8]: 70%; pest or weed control at 250 g/ha [8]: 70%; pest or weed control at 15.625 g/ha [9]: 0%; pest or weed control at 62.5 g/ha [9]: 0%; pest or weed control at 250 g/ha [9]: 10%; pest or weed control at 15.625 g/ha [10]: 0%; pest or weed control at 62.5 g/ha [10]: 0%; pest or weed control at 250 g/ha [10]: 0%; plant injury at 15.625 g/ha (corn (Zea mays) [11]): 20%; plant injury at 62.5 g/ha (corn (Zea mays) [11]): 10%; plant injury at 250 g/ha (corn (Zea mays) [11]): 20%; pest or weed control at 15.625 g/ha [12]: 0%; pest or weed control at 62.5 g/ha [12]: 0%; pest or weed control at 250 g/ha [12]: 0%
CCOc1cc([C@@H]2CN(C)C(=O)[C@H]2C(=O)Nc2cccc(F)c2F)cc(C(F)(F)F)n1 (racemic) [Compound 1753],40,70,70,60,60,70,10,20,30,0,20,30,60,60,80,20,50,60,30,70,pest or weed control at 250 g/ha [7]: 80%; pest or weed control at 15.625 g/ha [8]: 70%; pest or weed control at 62.5 g/ha [8]: 80%; pest or weed control at 250 g/ha [8]: 90%; pest or weed control at 15.625 g/ha [9]: 0%; pest or weed control at 62.5 g/ha [9]: 0%; pest or weed control at 250 g/ha [9]: 0%; pest or weed control at 15.625 g/ha [10]: 0%; pest or weed control at 62.5 g/ha [10]: 0%; pest or weed control at 250 g/ha [10]: 60%; plant injury at 15.625 g/ha (corn (Zea mays) [11]): 0%; plant injury at 62.5 g/ha (corn (Zea mays) [11]): 0%; plant injury at 250 g/ha (corn (Zea mays) [11]): 60%; pest or weed control at 15.625 g/ha [12]: 0%; pest or weed control at 62.5 g/ha [12]: 0%; pest or weed control at 250 g/ha [12]: 80%
